Here are results for 28 molecules from patent publication US20210261539A1, “COMPOUND HAVING BET INHIBITORY ACTIVITY AND PREPARATION METHOD AND USE THEREFOR” (Shanghai Haihe Pharmaceutical Co., Ltd., priority 2018, published 2021).

As a reminder, the IC50 is the concentration that inhibits the measured activity by half. A lower IC50 goes with greater potency.

This assay deals with T1, BRD4 BD1 (Homo sapiens, UniProt O60885).
T1 construct: Protein BRD4 BD1 used in the assay was purchased from Active Motif (cat. 31380); purchased Active Motif 31380
Briefly: HTRF in vitro enzyme activity assay, inhibition of BRD4 BD1 binding to acetylated H4 peptide. The conditions noted are these: IC50 values of the compounds against BRD4 BD1 binding; class symbols A/B/C. The procedure: Effect Examples: In Vitro Enzyme Activity Assay
Half inhibitory activity (IC50) of the compounds of the invention against the bromodomain protein BRD4 BD1 was determined in the present Examples.
The compounds of the invention were tested for inhibitory activity against BRD4 BD1 with Homogeneous Time-Resolved Fluorescence (HTRF).
2. Reagents, Consumable Materials and Instruments:
Protein BRD4 BD1 used in the assay was purchased from Active Motif (cat. 31380); streptavidin XL-665 (#610SAXLA) and EPIgeneous Binding Domain Kit A (#62BDAPEG) were both purchased from Cisbio Bioassays; [Lys(5,8,12,16)Ac] H4(1-21)-biotin (#64989), [Lys(5,8,12,16)Ac]H4(1-25) were available from Anaspec; OTX015 and ABBV-075 were purchased from Selleckchem Co. The 384-well ProxiPlate (#6008280) was purchased from Perkinelmer Co. The Laboratory microplate reader (Envision 2104) was available from PerkinElmer Co. The water used in the assay was Millipore-Q pure water.
3. Formulation of the Compound
10 mM DMSO stock solution of the test compound was diluted to 1 mM in DMSO, and then diluted 10-fold in Binding Domain dilution buffer (purchased from Cisbio Bioassays) for use (DMSO concentration in the final system was 0.1%), including 5 concentrations in 1:5 gradient.
4. Assay Protocol: 1 Batch, 2 Repeats
1) 5 μL of test compound was transferred to 45 μL Binding Domain dilution buffer.
2) 2 μL of 1× compound (4 μL Binding Domain dilution buffer: positive control; 6 μL enzyme buffer (purchased from Cisbio Bioassays): negative control) was transferred to a reaction plate.
3) 4 μL of 5×BRD 4(1) was added to the reaction plate (30 nM in the final system).
4) 4 μL of 5×[Lys(5,8,12,16)Ac] H4(1-21)-biotin was added to the reaction plate, and the plate was covered with a film and incubated at 37° C. for 30 min.
5) A detection mixture of SA-XL665 (2×) and anti-H3K9me0-Eu(K) (2×) was prepared in detection buffer (purchased from Cisbio Bioassays).
6) 10 μL of detection mixture (2×) was added to each well, incubated at RT for 3 h. The mp value was read by microplate reader Envision with the following parameters: […]
In the case of `C[C@H]1Oc2nc(N3C(=O)c4c([S+](C)[O-])cccc4C3(O)c3cccnc3)ccc2N(C)C1=O` (single isomer, unassigned) [Example A129-P3], the IC50 lay in the range of 10 to 100 nM.
`Cc1ccc(C2c3ccccc3C(=O)N2c2ccc3c(n2)O[C@H](C)C(=O)N3C)cn1` (single isomer, unassigned) [Example A112-P1] gave an IC50 of at most 10 nM.
Then `C[C@@H]1C(=O)N(C)c2ccc(N3C(=O)c4c(C(=O)NC5CC5)cccc4C3c3ccccc3)nc2N1C` (stereo partly drawn) [Example A87-P4, N-cyclopropyl-3-oxo-1-phenyl-2-((R)-1,3,4-trimethyl-2-oxo-1,2,3,4-tetrahydropyrido[2,3-b]pyrazin-6-yl)isoindoline-4-carboxamide], with at most 10 nM; and `CCN1C(=O)[C@@H](C)Oc2nc(N3C(=O)c4ccccc4C3c3ccc(Cl)cc3)ccc21` (stereo partly drawn) [Example A109-P3, (R)-6-(1-(4-chlorophenyl)-3-oxoisoindolin-2-yl)-1-ethyl-3-methyl-1H-pyrido[2,3-B][1,4]oxazin-2-(3H)-one], with 10 to 100 nM; and `CC1C(=O)N(C)c2ccc(N3C(=O)c4cccnc4C3(O)c3ccc(F)cc3F)nc2N1C1CC1` (single isomer, unassigned) [Example A13-P1, 4-cyclopropyl-6-(7-(2,4-difluorophenyl)-7-hydroxy-5-oxo-5,7-dihydro-6H-pyrrolo[3,4-b]pyridin-6-yl)-1,3-dimethyl-3,4-dihydropyrido[2,3-b]pyrazin-2(1H)-one], with at most 10 nM.
Turning to `CC1C(=O)N(CF)c2ccc(N3C(=O)c4ccccc4C3c3cccnc3)nc2N1C1CC1` (stereo not shown) [Example A45-P4, 4-cyclopropyl-1-(fluoromethyl)-3-methyl-6-(1-oxo-3-(pyridin-3-yl)isoindolin-2-yl)-3,4-dihydropyrido [2,3-b]pyrazin-2(1H)-one], the IC50 was at most 10 nM.
`Cc1ccc(-n2c3ccccc3c(=O)n2-c2ccc3c(n2)N(C2CC2)C(C)C(=O)N3C)cn1` (single isomer, unassigned) [Example A50-P1, 6-(1-(6-methyl-pyridin-3-yl)-3-oxo-1,3-dihydro-2H-indazol-2-yl)-4-cyclopropyl-1-methyl-3-methyl-3,4-dihydropyridine [2,3-b]pyrazin-2(1H)-one] came in with an IC50 of at most 10 nM.
Take `CC1C(=O)N(C)c2ccc(N3C(=O)c4c(C(=O)O)cccc4C3c3ccc(F)cc3)nc2N1C1CC1` (single isomer, unassigned) [Example A81-P4]: the concentration for half-maximal inhibition (IC50) was at most 10 nM.
In the case of `CC1C(=O)N(C)c2ccc(N3C(=O)c4ccccc4C3c3cccnc3)nc2N1C1COC1` (stereo not shown) [Example A54-P4, 1,3-dimethyl-4-(oxetan-3-yl)-6-(1-oxo-3-(pyridin-3-yl)isoindolin-2-yl)-3,4-dihydropyrido [2,3-b]pyrazin-2(1H)-one] it was at most 10 nM; in that of `CC1C(=O)N(C)c2ccc(N3C(=O)c4ccccc4C3c3ccccn3)nc2N1C1CC1` (single isomer, unassigned) [Example A69-P3, 4-cyclopropyl-1,3-dimethyl-6-(1-oxo-3-(pyridin-2-yl)isoindolin-2-yl)-3,4-dihydropyrido[2,3-b]pyrazin-2(1H)-one], at most 10 nM; in that of `CCN1C(=O)[C@@H](C)Oc2nc(N3C(=O)c4ccccc4C3c3cccnc3)ccc21` (stereo partly drawn) [Example A108-P3, (R)-1-ethyl-3-methyl-6-(1-oxo-3-(pyridin-3-yl)isoindolin-2-yl)-1H-pyrido[2,3-B][1,4]oxazin-2(3H)-one], 10 to 100 nM.
In the case of `CC1C(=O)N(C)c2ccc(N3C(=O)c4ccccc4C3(O)c3ccc(Cl)cc3)nc2N1C1CC1` (racemic) [Example A30, 6-(1-(4-chlorophenyl)-1-hydroxy-3-oxoisoindolin-2-yl)-4-cyclopropyl-1,3-dimethyl-3,4-dihydropyrido [3,2-b]pyrazin-2(H)-one] it was 10 to 100 nM; in that of `C[C@@H]1C(=O)N(C)c2cnc(N3C(=O)c4c(cccc4[S+](C)[O-])C3c3cccnc3)nc2N1C` (stereo partly drawn) [A102-P2/P3, (7R)-5,7,8-trimethyl-2-(4-(methylsulfinyl)-3-oxo-1-(pyridin-3-yl)isoindolin-2-yl)-7,8-dihydropteridin-6(5H)-one], at most 10 nM.
The molecule `CC1C(=O)N(CCF)c2ccc(N3C(=O)c4ccccc4C3c3cccnc3)nc2N1C1CC1` (stereo not shown) [Example A52-P4, 4-cyclopropyl-1-(2-fluoroethyl)-3-methyl-6-(1-oxo-3-(pyridin-3-yl)isoindolin-2-yl)-3,4-dihydropyrido [2,3-b]pyrazin-2(1H)-one] returned a half-inhibitory concentration (IC50) of at most 10 nM.
In the case of `CC1C(=O)N(C)c2ccc(N3C(=O)c4ccccc4C3(O)c3ccc(F)cc3)nc2N1C1CC1` (stereo not shown) [Compound A25, 4-cyclopropyl-6-(1-(4-fluorophenyl)-1-hydroxy-3-oxoisoindolin-2-yl)-1,3-dimethyl-3,4-dihydropyrido[2,3-b]pyrazin-2(1H)-one] it was 10 to 100 nM; in that of `CC1C(=O)N(C)c2ccc(N3C(=O)c4cccc(F)c4C3c3cccnc3)nc2N1C1CC1` (single isomer, unassigned) [Example A75-P3, 4-cyclopropyl-6-(7-fluoro-3-oxo-1-(pyridin-3-yl)isoindolin-2-yl)-1,3-dimethyl-3,4-dihydropyrido[2,3-b]pyrazin-2(1H)-one], at most 10 nM.
Take `CC1C(=O)N(C)c2ccc(N3C(=O)N(C)CC3c3ccccc3)nc2N1C1CC1` (single isomer, unassigned) [Example A19-P3, 4-cyclopropyl-1,3-dimethyl-6-(3-methyl-2-oxo-5-phenylimidazolidin-1-yl)-3,4-dihydropyrido[2,3-b]pyrazin-2(1H)-one]: the IC50 is at most 10 nM.
In turn, `COC(=O)c1cccc2c1C(=O)N(c1ccc3c(n1)N(C1CC1)C(C)C(=O)N3C)C2c1ccc(F)cc1` (single isomer, unassigned) [Example A80-P3, Methyl 2-(4-cyclopropyl-1,3-dimethyl-2-oxo-1,2,3,4-tetrahydropyrido[2,3-b]pyrazin-6-yl)-1-(4-fluorophenyl)-3-oxoisoindoline-4-carboxylate] showed an IC50 of at most 10 nM.
`C[C@H]1Oc2nc(N3C(=O)c4c(cccc4S(C)(=O)=O)C3c3cccnc3)ccc2N(C)C1=O` (single isomer, unassigned) [Example A128-P1] gave an IC50 of 10 to 100 nM.
Take `C[C@@H]1C(=O)N(C)c2cnc(N3C(=O)c4ccccc4C3c3cccnc3)nc2N1C` (stereo partly drawn) [Example A90-P4, (7R)-5,7,8-trimethyl-2-(1-oxo-3-(pyridin-3-yl)isoindolin-2-yl)-7,8-dihydropteridin-6(5H)-one]: the 50% inhibitory concentration (IC50) was at most 10 nM.
For `Cc1ccc(C2c3ccccc3C(=O)N2c2nc3c(cc2F)N(C)C(=O)[C@@H](C)O3)cn1` (stereo partly drawn) [Example A114-P3, (R)-7-fluoro-1,3-dimethyl-6-(1-(6-methylpyridin-3-yl)-3-oxoisoindolin-2-yl)-1H-pyrido[2,3-b][1,4]oxazin-2(3H)-one], the IC50 lay within 100 to 1000 nM.
In the case of `C[C@H]1Oc2cc(N3C(=O)c4ccccc4C3c3ccc(F)nc3)ncc2N(C)C1=O` (single isomer, unassigned) [Example A125-P1] it was 100 to 1000 nM; in that of `C[C@@H]1C(=O)N(C)c2cnc(N3C(=O)c4ccccc4C3c3ccc(F)nc3)nc2N1C` (single isomer, unassigned) [Example A91-P2], at most 10 nM.
In the case of `CC1C(=O)N(C)c2cc(F)c(N3C(=O)c4ccccc4C3c3cccnc3)nc2N1C1CC1` (stereo not shown) [Example A44, 4-cyclopropyl-7-fluoro-1,3-dimethyl-6-(1-oxo-3-(pyridin-3-yl)isoindolin-2-yl)-3,4-dihydropyrido [2,3-b]pyrazin-2(1H)-one] it was at most 10 nM.
In the case of `C[C@@H]1C(=O)N(C)c2ccc(N3C(=O)c4c(cccc4S(C)(=O)=O)C3c3cccnc3)nc2N1C` (single isomer, unassigned) [Example A62-P1] it was at most 10 nM; in that of `Cc1cc(N2C(=O)CCC2c2ccccc2)nc2c1N(C)C(=O)C(C)N2C1CC1` (single isomer, unassigned) [Example A9-P1-2, 4-cyclopropyl-1,3,8-trimethyl-6-(2-oxo-5-phenylpyrrolidin-1-yl)-3,4-dihydropyrido[2,3-b]pyrazin-2(1H)-one], 10 to 100 nM.
`C[C@@H]1C(=O)N(C)c2ccc(N3C(=O)c4ccccc4C3c3cccnc3)nc2N1C` (stereo partly drawn) [Example A48-P4, (3R)-1,3,4-trimethyl-6-(1-oxo-3-(pyridin-3-yl)isoindolin-2-yl)-3,4-dihydropyrido [2,3-b]pyrazin-2-(1H)-one] registered a 50% inhibitory concentration (IC50) of at most 10 nM.
For `CC1C(=O)N(C)c2ccc(N3C(=O)CCC3c3ccc(F)cc3F)nc2N1C1CC1` (single isomer, unassigned) [Example A7-P3, 4-cyclopropyl-6-(2-(2,4-difluorophenyl)-5-oxopyrrolidin-1-yl)-1,3-dimethyl-3,4-dihydropyrido[2,3-b]pyrazin-2(1H)-one], the half-maximal inhibitory concentration (IC50) was at most 10 nM.
